The IC50 is the concentration that gives 50% inhibition. Read a low IC50 as higher potency.

The text below walks through data of patent publication US20220112187A1, “PYRAZOLOPYRIDINE AMINE COMPOUNDS FOR THE TREATMENT OF AUTOIMMUNE DISEASE” (Hoffmann-La Roche Inc., priority 2018, published 2022).

The assay concerns the target T1, human TLR8 (Homo sapiens, UniProt Q9NR97).
T1 sequence (Q9NR97 27-1041): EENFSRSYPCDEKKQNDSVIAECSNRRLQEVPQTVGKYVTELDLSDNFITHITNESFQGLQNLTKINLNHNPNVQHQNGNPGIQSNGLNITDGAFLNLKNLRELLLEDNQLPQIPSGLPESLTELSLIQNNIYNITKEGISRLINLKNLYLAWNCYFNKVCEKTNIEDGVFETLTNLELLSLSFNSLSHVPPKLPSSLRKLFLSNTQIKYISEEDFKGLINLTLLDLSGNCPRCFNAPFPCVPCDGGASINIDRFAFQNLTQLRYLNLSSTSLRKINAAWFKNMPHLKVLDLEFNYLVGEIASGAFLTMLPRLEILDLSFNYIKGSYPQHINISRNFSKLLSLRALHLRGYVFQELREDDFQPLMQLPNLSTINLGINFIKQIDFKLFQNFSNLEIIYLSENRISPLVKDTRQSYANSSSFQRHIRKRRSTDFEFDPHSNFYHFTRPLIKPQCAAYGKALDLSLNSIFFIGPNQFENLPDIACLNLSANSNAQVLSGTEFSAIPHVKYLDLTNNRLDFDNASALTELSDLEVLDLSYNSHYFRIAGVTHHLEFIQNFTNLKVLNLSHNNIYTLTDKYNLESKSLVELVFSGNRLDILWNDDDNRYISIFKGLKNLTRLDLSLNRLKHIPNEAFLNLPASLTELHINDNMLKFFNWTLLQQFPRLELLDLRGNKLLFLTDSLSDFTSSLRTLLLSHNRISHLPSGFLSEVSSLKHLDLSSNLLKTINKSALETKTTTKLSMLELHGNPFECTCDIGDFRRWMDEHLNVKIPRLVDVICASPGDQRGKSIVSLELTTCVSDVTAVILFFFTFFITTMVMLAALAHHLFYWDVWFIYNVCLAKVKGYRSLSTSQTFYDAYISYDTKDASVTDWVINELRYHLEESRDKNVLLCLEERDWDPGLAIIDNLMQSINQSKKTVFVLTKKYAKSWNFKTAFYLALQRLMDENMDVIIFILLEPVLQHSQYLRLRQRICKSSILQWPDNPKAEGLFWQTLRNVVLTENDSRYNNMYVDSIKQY
Description: HEK293-Blue-hTLR-8 cells assay (SEAP reporter, R848 stimulation). The format is cell-based. The note with it: HEK293-Blue-hTLR8 cells, R848 ligand, 20 hrs incubation. An excerpt:
A stable HEK293-Blue-hTLR-8 cell line was purchased from InvivoGen (Cat. #: hkb-htlr8, San Diego, Calif., USA). These cells were originally designed for studying the stimulation of human TLR8 by monitoring the activation of NF-κB. A SEAP (secreted embryonic alkaline phosphatase) reporter gene was placed under the control of the IFN-β minimal promoter fused to five NF-κB and AP-1-binding sites. The SEAP was induced by activating NF-κB and AP-1 via stimulating HEK-Blue hTLR8 cells with TLR8 ligands. Therefore the reporter expression was declined by TLR8 antagonist under the stimulation of a ligand, such as R848, for incubation of 20 hrs. The cell culture supernatant SEAP reporter activity was determined using QUANTI-Blue™ kit (Cat. #: rep-qb1, Invivogen, San Diego, Ca, USA) at a wavelength of 640 nm, a detection medium that turns purple or blue in the presence of alkaline phosphatase.
HEK293-Blue-hTLR8 cells were incubated at a density of 250,000˜450,000 cells/mL in a volume of 170 μL in a 96-well plate in Dulbecco's Modified Eagle's medium (DMEM) containing 4.5 g/L glucose, 50 U/mL penicillin, […], […], 2 mM L-glutamine, 10% (v/v) heat-inactivated fetal bovine serum with addition of 20 μL test compound in a serial dilution in the presence of final DMSO at 1% and 10 μL of 60 uM R848 in above DMEM, perform incubation under 37° C. in a CO2 incubator for 20 hrs. Then 20 μL of the supernatant from each well was incubated with 180 μL Quanti-blue substrate solution at 37° C. for 2 hrs and the absorbance was read at 620˜655 nm using a spectrophotometer. The signalling pathway that TLR8 activation leads to downstream NF-κB activation has been widely accepted, and therefore similar reporter assay was modified for evaluating TLR8 antagonist.
`C[C@@H]1CN(c2ccc(C#N)n3nccc23)C[C@H](CN2CCCC3(CCNC3)C2)O1` (stereo partly drawn) [Example 44, 4-[(2S,6R)-2-(2,7-diazaspiro[4.5]decan-7-ylmethyl)-6-methyl-morpholin-4-yl]pyrazolo[1,5-a]pyridine-7-carbonitrile] showed an IC50 of 25 nM.

Turning to `C[C@@H]1CN(c2ccc(C#N)n3nccc23)C[C@H](CN2CCCC3CNCC32)O1` (stereo partly drawn) [Example 61, 4-[(2S,6R)-2-(2,3,4,4a,5,6,7,7a-octahydropyrrolo[3,4-b]pyridin-1-ylmethyl)-6-methyl-morpholin-4-yl]pyrazolo[1,5-a]pyridine-7-carbonitrile], half-maximal inhibition (IC50) was put at 300 nM.

Turning to `C[C@@H]1CN(c2ccc(C#N)n3nccc23)C[C@H](CN2CCC(N)C(F)(F)C2)O1` (stereo partly drawn) [Example 34, 4-[(2S,6R)-2-[(4-amino-3,3-difluoro-1-piperidyl)methyl]-6-methyl-morpholin-4-yl]pyrazolo[1,5-a]pyridine-7-carbonitrile], half-maximal inhibition (IC50) required 65 nM.

As for `C[C@@H]1CN(c2ccc(C#N)n3nccc23)C[C@H](CN2CCN[C@H](c3ccccc3)C2)O1` [Example 38, 4-[(2R,6S)-2-methyl-6-[[(3R)-3-phenylpiperazin-1-yl]methyl]morpholin-4-yl]pyrazolo[1,5-a]pyridine-7-carbonitrile], the IC50 amounted to 37 nM.

`C[C@@H]1CN(c2ccc(C#N)n3nccc23)C[C@H](CN2CCCC3NCCCC32)O1` (stereo partly drawn) [Example 64, 4-[(2S,6R)-2-(3,4,4a,5,6,7,8,8a-octahydro-2H-1,5-naphthyridin-1-ylmethyl)-6-methyl-morpholin-4-yl]pyrazolo[1,5-a]pyridine-7-carbonitrile] returned an IC50 of 120 nM.

As for `C[C@@H]1CN(c2ccc(C#N)n3nccc23)C[C@H](CN2CC3CCNCC3C2)O1` (stereo partly drawn) [Example 49, 4-[(2S,6R)-2-(1,3,3a,4,5,6,7,7a-octahydropyrrolo[3,4-c]pyridin-2-ylmethyl)-6-methyl-morpholin-4-yl]pyrazolo[1,5-a]pyridine-7-carbonitrile], half-maximal inhibition (IC50) required 150 nM.

Molecule `C[C@@H]1CN(c2ccc(C#N)n3nccc23)C[C@H](CN2CCC3(CCCNC3)C2)O1` (stereo partly drawn) [Example 25, 4-[(2S,6R)-2-(2,9-diazaspiro[4.5]decan-2-ylmethyl)-6-methyl-morpholin-4-yl]pyrazolo[1,5-a]pyridine-7-carbonitrile] displayed an IC50 of 88 nM.

The molecule `C[C@@H]1CN(c2ccc(C#N)n3nccc23)C[C@H](CN2CC3(CCNC3)CC2=O)O1` (stereo partly drawn) [Example 20, 4-[(2R,6R)-2-methyl-6-[(3-oxo-2,7-diazaspiro[4.4]nonan-2-yl)methyl]morpholin-4-yl]pyrazolo[1,5-a]pyridine-7-carbonitrile] returned an IC50 of 610 nM.

The molecule `C[C@@H]1CN(c2ccc(C#N)n3nccc23)C[C@H](CN2CCCC3(CCCNC3)C2)O1` (stereo partly drawn) [Example 23, 4-[(2S,6R)-2-(2,8-diazaspiro[5.5]undecan-2-ylmethyl)-6-methyl-morpholin-4-yl]pyrazolo[1,5-a]pyridine-7-carbonitrile] registered an IC50 of 41 nM.

Regarding `C[C@@H]1CN(c2ccc(C#N)n3nccc23)C[C@H](CN2CCC3(CCNC3)CC2)O1` [Example 19, 4-[(2S,6R)-2-(2,8-diazaspiro[4.5]decan-8-ylmethyl)-6-methyl-morpholin-4-yl]pyrazolo[1,5-a]pyridine-7-carbonitrile], the midpoint of inhibition, the IC50, lay at 250 nM.

In the case of `C[C@@H]1CN(c2ccc(C#N)n3nccc23)C[C@H](CN2C3COCC2CC(N)C3)O1` (stereo partly drawn) [Example 58, 4-[(2S,6R)-2-[(7-amino-3-oxa-9-azabicyclo[3.3.1]nonan-9-yl)methyl]-6-methyl-morpholin-4-yl]pyrazolo[1,5-a]pyridine-7-carbonitrile], the IC50 worked out at 58 nM.

In turn, `C[C@@H]1CN(c2ccc(C#N)n3nccc23)C[C@H](CN2CC3CCC(C2)N3)O1` [Example 31, 4-[(2S,6R)-2-(3,8-diazabicyclo[3.2.1]octan-3-ylmethyl)-6-methyl-morpholin-4-yl]pyrazolo[1,5-a]pyridine-7-carbonitrile] displayed an IC50 of 97 nM.

Turning to `C[C@@H]1CN(c2ccc(C#N)n3nccc23)C[C@H](CN2CCC(N3CCCCCC3)CC2)O1` [Example 4, 4-[(2S,6R)-2-[[4-(azepan-1-yl)-1-piperidyl]methyl]-6-methyl-morpholin-4-yl]pyrazolo[1,5-a]pyridine-7-carbonitrile], it took 26 nM to reach half-maximal inhibition (IC50).

Regarding `C[C@@H]1CN(c2ccc(C#N)n3nccc23)C[C@H](CN2CCC23CNC3)O1` [Example 55, 4-[(2S,6R)-2-(1,6-diazaspiro[3.3]heptan-1-ylmethyl)-6-methyl-morpholin-4-yl]pyrazolo[1,5-a]pyridine-7-carbonitrile], half-maximal inhibition (IC50) required 870 nM.

`C[C@@H]1CN(c2ccc(C#N)n3nccc23)C[C@H](CN2CC(N)C(F)(F)C2)O1` (stereo partly drawn) [Example 35, 4-[(2S,6R)-2-[(4-amino-3,3-difluoro-pyrrolidin-1-yl)methyl]-6-methyl-morpholin-4-yl]pyrazolo[1,5-a]pyridine-7-carbonitrile] had an IC50 of 950 nM.

As to `C[C@@H]1CN(c2ccc(C#N)n3nccc23)C[C@H](CN2CC3CCC2CN3)O1` (stereo partly drawn) [Example 30, 4-[(2S,6R)-2-(2,5-diazabicyclo[2.2.2]octan-2-ylmethyl)-6-methyl-morpholin-4-yl]pyrazolo[1,5-a]pyridine-7-carbonitrile], 100 nM corresponded to half-maximal inhibition (IC50).

Molecule `C[C@@H]1CN(c2ccc(C#N)n3nccc23)C[C@H](CN2CC3(CCNCC3)C2)O1` [Example 24, 4-[(2S,6R)-2-(2,7-diazaspiro[3.5]nonan-2-ylmethyl)-6-methyl-morpholin-4-yl]pyrazolo[1,5-a]pyridine-7-carbonitrile] gave an IC50 of 610 nM.

The molecule `C[C@@H]1CN(c2ccc(C#N)n3nccc23)C[C@H](CN2CC3CCCNC3C2)O1` (stereo partly drawn) [Example 45, 4-[(2S,6R)-2-(1,2,3,4,4a,5,7,7a-octahydropyrrolo[3,4-b]pyridin-6-ylmethyl)-6-methyl-morpholin-4-yl]pyrazolo[1,5-a]pyridine-7-carbonitrile] yielded an IC50 of 230 nM.

As for `C[C@@H]1CN(c2ccc(C#N)n3nccc23)C[C@H](CN2CCN(C3CCNCC3)CC2Cc2ccccc2)O1` (stereo partly drawn) [Example 77, 4-[(2S,6R)-2-[[2-benzyl-4-(4-piperidyl)piperazin-1-yl]methyl]-6-methyl-morpholin-4-yl]pyrazolo[1,5-a]pyridine-7-carbonitrile], the IC50 was determined as 130 nM.

In the case of `C[C@@H]1CN(c2ccc(C#N)n3nccc23)C[C@H](CN2CCNC3(CC3)C2)O1` [Example 40, 4-[(2S,6R)-2-(4,7-diazaspiro[2.5]octan-7-ylmethyl)-6-methyl-morpholin-4-yl]pyrazolo[1,5-a]pyridine-7-carbonitrile], the IC50 worked out at 140 nM.

As for `C[C@@H]1CN(c2ccc(C#N)n3nccc23)C[C@H](CN2CC3(CCCNC3)C2)O1` [Example 10, 4-[(2S,6R)-2-(2,8-diazaspiro[3.5]nonan-2-ylmethyl)-6-methyl-morpholin-4-yl]pyrazolo[1,5-a]pyridine-7-carbonitrile], the IC50 turned out to be 130 nM.

Consider `C[C@@H]1CN(c2ccc(C#N)n3nccc23)C[C@H](CN2CCC(N)(c3ccccc3)CC2)O1` [Example 73, 4-[(2S,6R)-2-[(4-amino-4-phenyl-1-piperidyl)methyl]-6-methyl-morpholin-4-yl]pyrazolo[1,5-a]pyridine-7-carbonitrile], for which half-maximal inhibition (IC50) required 47 nM.
